The conditions of series [1]: mouse, in vivo.
Protocol: 8-week-old male mice with a severe T8 contusion/compression SCI were injected IP daily with 5c(i) for 7 weeks (5 and 25 mg/kg/day). […] 7 weeks post injury, heparinized plasma was collected and 12B) alanine aminotransferase (ALT), 12C) alkaline phosphatase (ALP), 12D) aspartate aminotransferase (AST), and 12E) blood urea nitrogen (BUN) levels were assessed. […] N=6-8. Graphs show mean and SEM. # (p<0.1) * (p<0.05) ** (p<0.01) *** (p<0.001) **** (p<0.0001). Student's T-test.
For the administration of pharmaceutical agents, the vehicle was 0.6 mL/kg of 100% dimethyl sulfoxide (DMSO). 5c(i) (at 5 and 25 mg/kg/day) diluted in vehicle or vehicle alone was administered once daily through intraperitoneal (IP) injections at a volume of 0.6 mL/kg/day.
Seven weeks after injury, histological analysis was performed on livers, and toxicology screens were conducted on plasma (FIG. 12).
The next series addresses T1, TrkC (Homo sapiens, UniProt Q16288).
T1 construct: expressed in transfected cells; host or cells: NIH/3T3 (TrkC-NIH/3T3)
The series can be described thus: Cell-associated fluorescence saturation binding, TrkC-NIH/3T3 cells. The following applies: 2.5 h, with and without 0.2 nM NT-3. How it is done: FIG. 2: 5c(i) binds to TrkB and TrkC receptors. Transfected cell lines that are Trk positive cells (TrkB-HEK293 and TrkC-NIH/3T3) and non-transfected cell lines that are Trk negative cells (HEK293 and NIH/3T3) were seeded approximately 2,000 cells/well in a 96-well plate and incubated for 24 hours. The cells were treated with a serial dilution of compound (0, 10, 25, 50, 100, 200, 500, and 1000 nM) in serum-free media (SFM) with and without A) 0.6 nM of BDNF (TrkB-HEK293 and HEK293) and B) 0.2 nM of NT-3 (TrkC-NIH/3T3 and NIH/3T3) for 2.5 h. After that, the cells were washed with PBS once to remove unbound compounds and dissolved in 1% (w/v) aqueous sodium dodecyl sulfate. Cell-associated fluorescence was then determined by measuring the emission of the resulting solution upon λex (540/25 nm) and λem (620/40 nm) using Agilent BioTek Synergy H4 Hybrid Microplate Reader. Kd was calculated by GraphPad Prism 9 using Binding saturation (One site—Specific binding).
Transfected cell lines that are Trk positive cells (TrkA-HeLa, TrkB-HEK293, and TrkC-NIH/3T3) and non-transfected cell lines that are Trk negative cells (HeLa, HEK293, and NIH/3T3) were seeded at 2,000 cells/well in a 96-well plate (0.32 cm^2 growth area) and incubated inside a 5% CO2 incubator at 37° C. for 24 hours. […] The dissociation constant (Kd) was calculated using binding saturation (One site—Specific binding).

The subject of series [2] is adult cortical neurons on astrocytes. As to the kind of experiment: Neurons plated on 5c(i)-pretreated astrocytes. The format is cell-based, mouse. The following applies: astrocytes cultured with 5c(i) 2 days, 5c(i) removed, neurons 2DIV. As to the method: (§1) FIGS. 4A-4D: 5c(i) induces Synapsin I production and reduces C3 and GSK-3s expression from astrocytes promoting neuron survival and neurite growth. Primary adult cortical astrocytes from 6-month-old male mice were incubated with 5 μM 5c(i) for 3 days. Graph represents mean±SEM of percent change in fluorescent intensity (Synapsin I and C3) or chemiluminescence (GSK-3β) relative to Vehicle (4A and 4D). Images represent the 4B) Vehicle and 4C) 5 μM 5c(i) treated groups stained with Synapsin I and DAPI. D) Cortical astrocytes from 6-month-old male mice were plated and treated with 5c(i) or Vehicle for 2 days. Cells were then washed and cortical neurons from 6-month-old male mice were added on top of the astrocytes. […] Scale bar=50 μm.
(§2) To determine if 5c(i) can modulate astrocytes, adult astrocytes from 6-month-old male mice were treated with 5c(i) for 3 days and stained with Synapsin I and C3 to measure changes in fluorescent intensity or western blot was conducted on the cell lysate to assess changes in GSK-3β expression (FIG. 4). […] To determine if 5c(i) treated astrocytes can directly benefit neuronal recovery, astrocytes were cultured with 5c(i) for 2 days before removing 5c(i) from the culture and plating adult neurons on top of the astrocytes for 2DIV, resulting in increased neuron survival and neurite growth. […]

The next series has as its system C3. As to the kind of experiment: Astrocyte C3 staining (fluorescent intensity). Conditions: astrocytes from 6-month-old male mice, 5 μM, 3 days. It is filed as cell-based, mouse. As to the method: as §1, §2

T1 sequence (Q16288 32-839, species assumed): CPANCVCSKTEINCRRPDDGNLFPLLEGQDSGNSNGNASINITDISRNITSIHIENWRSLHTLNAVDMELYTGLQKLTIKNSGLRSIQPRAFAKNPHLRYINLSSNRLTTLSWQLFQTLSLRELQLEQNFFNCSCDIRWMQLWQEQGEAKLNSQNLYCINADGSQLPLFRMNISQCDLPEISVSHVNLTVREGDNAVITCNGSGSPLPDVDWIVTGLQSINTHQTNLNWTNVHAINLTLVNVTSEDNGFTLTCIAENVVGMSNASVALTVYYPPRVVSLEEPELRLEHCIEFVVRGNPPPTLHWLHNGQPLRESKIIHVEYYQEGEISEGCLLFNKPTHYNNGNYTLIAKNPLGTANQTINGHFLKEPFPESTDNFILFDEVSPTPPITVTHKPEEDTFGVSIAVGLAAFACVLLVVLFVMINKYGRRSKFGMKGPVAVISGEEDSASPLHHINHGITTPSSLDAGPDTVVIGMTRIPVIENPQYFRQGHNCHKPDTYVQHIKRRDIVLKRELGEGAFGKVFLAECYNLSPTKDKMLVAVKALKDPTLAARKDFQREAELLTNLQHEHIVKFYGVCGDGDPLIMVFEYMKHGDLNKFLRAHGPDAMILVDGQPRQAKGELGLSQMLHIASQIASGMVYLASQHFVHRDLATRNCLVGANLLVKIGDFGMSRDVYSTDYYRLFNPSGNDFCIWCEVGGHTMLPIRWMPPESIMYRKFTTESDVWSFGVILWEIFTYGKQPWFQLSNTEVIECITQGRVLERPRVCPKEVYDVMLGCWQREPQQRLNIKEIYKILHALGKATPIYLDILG

For “C-DIRG-C BODIPY® (fluorescent dye) [5c(i)]”, in series [1], the “alanine aminotransferase (ALT)” value is “does not alter”, the “alkaline phosphatase (ALP)” value is “does not alter”, the “aspartate aminotransferase (AST)” value was “does not alter” and the “blood urea nitrogen (BUN)” value is given as “does not alter”. The “affinity for TrkC (Kd)” value on TrkC is given as “low nanomolar affinity”. Also, in series [2], the “neurite growth on pretreated astrocytes” value was “increased” and the “neuron survival on pretreated astrocytes” value is given as “increased”. Besides, in the series on C3, the C3 expression result is “reduction”.
